Test results: ChEMBL document CHEMBL1649542, “Outer membrane protein STM3031 (Ail/OmpX-like protein) plays a key role in the ceftriaxone resistance of Salmonella enterica serovar Typhimurium” (2009)
In brackets after ≈: the same amount, converted by molar mass.

How the values were obtained:
Type in all cases: functional, Salmonella enterica subsp. enterica serovar Typhimurium
Salmonella typhimurium [1] = assay: Antibacterial activity against Salmonella enterica serovar Typhimurium R200 expressing Outer membrane protein STM3031 by CLSI M7-A7 agar dilution method
Salmonella typhimurium [2] = assay: Antibacterial activity against Salmonella enterica serovar Typhimurium 01-4 by CLSI M7-A7 agar dilution method
Salmonella typhimurium [3] = assay: Antibacterial activity against Salmonella enterica serovar Typhimurium R200 expressing stm3031 gene deletion mutant by CLSI M7-A7 agar dilution method
Salmonella typhimurium [4] = assay: Antibacterial activity against Salmonella enterica serovar Typhimurium 01-4 by Etest method
Salmonella typhimurium [5] = assay: Antibacterial activity against Salmonella enterica serovar Typhimurium R5 expressing Outer membrane protein STM3031 after serial passage by Etest method
Salmonella typhimurium [6] = assay: Antibacterial activity against Salmonella enterica serovar Typhimurium R25 expressing Outer membrane protein STM3031 after serial passage by Etest method
Salmonella typhimurium [7] = assay: Antibacterial activity against Salmonella enterica serovar Typhimurium R1 expressing Outer membrane protein STM3031 after serial passage by Etest method
Salmonella typhimurium [8] = assay: Antibacterial activity against Salmonella enterica serovar Typhimurium R70 expressing Outer membrane protein STM3031 after serial passage by Etest method
Salmonella typhimurium [9] = assay: Antibacterial activity against Salmonella enterica serovar Typhimurium R10 expressing Outer membrane protein STM3031 after serial passage by Etest method
[10] = Salmonella enterica subsp. enterica serovar Typhimurium

Compound: CC(=O)OCC1=C(C(=O)O)N2C(=O)[C@@H](NC(=O)Cc3cccs3)[C@H]2SC1 [CEPHALOTHIN]
- MIC (Salmonella typhimurium [1]): > 256 µg/mL
- MIC (Salmonella typhimurium [2]): 4 µg/mL (≈ 10.1 µM)
- MIC (Salmonella typhimurium [3]): 128 µg/mL (≈ 323 µM)

Compound: CN[C@@H]1[C@H](O[C@H]2[C@H](O[C@H]3[C@H](O)[C@@H](O)[C@H](N=C(N)N)[C@@H](O)[C@@H]3N=C(N)N)O[C@@H](C)[C@]2(O)C=O)O[C@@H](CO)[C@H](O)[C@H]1O [STREPTOMYCIN]
- MIC (Salmonella typhimurium [1]): 256 µg/mL (≈ 440 µM)
- MIC (Salmonella typhimurium [2]): 128 µg/mL (≈ 220 µM)
- MIC (Salmonella typhimurium [3]): 128 µg/mL (≈ 220 µM)

Compound: CN[C@@H]1[C@H](O)[C@H](NC)[C@H]2O[C@@]3(O)C(=O)C[C@@H](C)O[C@H]3O[C@@H]2[C@H]1O [SPECTINOMYCIN]
- MIC (Salmonella typhimurium [1]): > 256 µg/mL
- MIC (Salmonella typhimurium [2]): > 256 µg/mL

Compound: CC[C@H]1OC(=O)[C@H](C)[C@@H](O[C@H]2C[C@@](C)(OC)[C@@H](O)[C@H](C)O2)[C@H](C)[C@@H](O[C@@H]2O[C@H](C)C[C@H](N(C)C)[C@H]2O)[C@](C)(O)C[C@@H](C)C(=O)[C@H](C)[C@@H](O)[C@]1(C)O [ERYTHROMYCIN]
- MIC (Salmonella typhimurium [1]): 4 µg/mL (≈ 5.45 µM)
- MIC (Salmonella typhimurium [2]): 128 µg/mL (≈ 174 µM)
- MIC (Salmonella typhimurium [3]): 2 µg/mL (≈ 2.73 µM)

Compound: GENTAMICIN
- MIC (Salmonella typhimurium [1]; [10]): 1 µg/mL
- MIC (Salmonella typhimurium [2]; [10]): 1 µg/mL
- MIC (Salmonella typhimurium [3]; [10]): 1 µg/mL

Compound: CCn1cc(C(=O)O)c(=O)c2ccc(C)nc21 [NALIDIXIC ACID]
- MIC (Salmonella typhimurium [1]): 1 µg/mL (≈ 4.31 µM)
- MIC (Salmonella typhimurium [2]): 4 µg/mL (≈ 17.2 µM)
- MIC (Salmonella typhimurium [3]): 0.5 µg/mL (≈ 2.15 µM)

Compound: CN(C)[C@@H]1C(O)=C(C(N)=O)C(=O)[C@@]2(O)C(O)=C3C(=O)c4c(O)cccc4[C@@](C)(O)[C@H]3C[C@@H]12 [TETRACYCLINE]
- MIC (Salmonella typhimurium [1]): 16 µg/mL (≈ 36 µM)
- MIC (Salmonella typhimurium [2]): 8 µg/mL (≈ 18 µM)
- MIC (Salmonella typhimurium [3]): 4 µg/mL (≈ 9 µM)

Compound: CO[C@H]1/C=C/O[C@@]2(C)Oc3c(C)c(O)c4c(O)c(c(/C=N/N5CCN(C)CC5)c(O)c4c3C2=O)NC(=O)/C(C)=C\C=C\[C@H](C)[C@H](O)[C@@H](C)[C@@H](O)[C@@H](C)[C@H](OC(C)=O)[C@@H]1C [RIFAMPIN]
- MIC (Salmonella typhimurium [1]): 16 µg/mL (≈ 19.4 µM)
- MIC (Salmonella typhimurium [2]): 16 µg/mL (≈ 19.4 µM)
- MIC (Salmonella typhimurium [3]): 16 µg/mL (≈ 19.4 µM)

Compound: CO[C@@H]1[C@@H](OC(N)=O)[C@@H](O)[C@H](Oc2ccc3c(O)c(NC(=O)c4ccc(O)c(CC=C(C)C)c4)c(=O)oc3c2C)OC1(C)C [NOVOBIOCIN]
- MIC (Salmonella typhimurium [1]): 256 µg/mL (≈ 418 µM)
- MIC (Salmonella typhimurium [2]): 256 µg/mL (≈ 418 µM)
- MIC (Salmonella typhimurium [3]): 128 µg/mL (≈ 209 µM)

Compound: Cn1nnnc1SCC1=C(C(=O)O)N2C(=O)[C@@H](NC(=O)[C@H](O)c3ccccc3)[C@H]2SC1 [CEFAMANDOLE]
- MIC (Salmonella typhimurium [1]): > 256 µg/mL
- MIC (Salmonella typhimurium [2]): 2 µg/mL (≈ 4.32 µM)
- MIC (Salmonella typhimurium [3]): 64 µg/mL (≈ 138 µM)

Compound: CO/N=C(\C(=O)N[C@@H]1C(=O)N2C(C(=O)O)=C(CSc3nc(=O)c(O)nn3C)CS[C@H]12)c1csc(N)n1 [CEFTRIAXONE]
- MIC (Salmonella typhimurium [1]): > 256 µg/mL
- MIC (Salmonella typhimurium [4]): 0.047 µg/mL (≈ 0.0847 µM)
- MIC (Salmonella typhimurium [2]): 0.047 µg/mL (≈ 0.0847 µM)
- MIC (Salmonella typhimurium [5]): 6 µg/mL (≈ 10.8 µM)
- MIC (Salmonella typhimurium [6]): 24 µg/mL (≈ 43.3 µM)
- MIC (Salmonella typhimurium [7]): 2 µg/mL (≈ 3.61 µM)
- MIC (Salmonella typhimurium [8]): 64 µg/mL (≈ 115 µM)
- MIC (Salmonella typhimurium [9]): 12 µg/mL (≈ 21.6 µM)
- MIC (Salmonella typhimurium [3]): 4 µg/mL (≈ 7.21 µM)

Compound: CCN1CCN(C(=O)N[C@@H](C(=O)N[C@@H]2C(=O)N3[C@@H]2SC(C)(C)[C@@H]3C(=O)O)c2ccccc2)C(=O)C1=O [PIPERACILLIN]
- MIC (Salmonella typhimurium [1]): > 256 µg/mL
- MIC (Salmonella typhimurium [2]): 256 µg/mL (≈ 495 µM)
